pEC50: −log10 of the molar value. Where “and” joins values, the source holds several entries; their conditions need not be identical. Identical values can stand only once. Entries after “also recorded” stand apart in the source; their conditions may differ. Like-named read-outs stand apart in the source and are kept apart here. One block for each molecule: values may come before it.
Columns and labels:
coronary arteries [1] = conditions: for pEC50: read-out: estimated ET1 EC50, responsive ovx monkeys; for coronary vasospasm on IC injection (no mechanical injury): serotonin 6.7 or 200 μmol/liter alone, U46619 6.7 to 2,000 nmol/liter alone, AII up to 200 nmol/liter, combination 6.7 μmol/liter serotonin and 67 nmol/liter U46619, triple combination with ET1
coronary arteries [2] = test: Mechanical injury coronary vasospasm protocol (Protocol 2); assay type: in vivo, rhesus monkeys (Macaca mulatta); conditions: for Spasms/N: number of animals with vasospasm / number of animals; for ED50 (-log mol/liter): syringe concentration of the named vasoconstrictor causing 50% reduction of diameter from control, combined stimuli with 100 μmol/liter serotonin
Excerpt: A separate mechanical injury, Protocol 2, was used in three additional monkeys (one male, two ovx). The injury step of Protocol 2, was deliberate mechanical stretching of the LAD or left main coronary artery with a 5F catheter.
In Protocol 2, steps 1-5 were the same as in Protocol 1. The remaining steps were as follows:
7. IC injection of angiotensin II (sequential doses to 10 μmol/liter);
8. Injury by stretching the coronary artery with a 5F catheter;
9. IC injection of serotonin (sequential doses to 1 mmol/liter);
10. IC injection 15 minutes later with 1 or 10 μmol/liter nitrendipine or Ro 40-5967 (mibefradil);
11. IC injection of […] (sequential doses to 10 μmol/liter); and
12. IC injection 15 minutes later with 1 or 10 μmol/liter nitrendipine or Ro 40-5967.
Putative coronary vasospasm stimuli were judged primarily by actions on large coronary artery diameters, analyzed as diameter of the most proximal focus of vasospasm at end-diastole from video-taped images recorded at 30 frames/s. We used the image analysis program Image Pro to measure the diameters from single frames acquired with an Imagraph frame grabber in a Pentium computer. We used the 3F catheter tip radio-opaque marker ring (1.0 mm) for calibration and determined minimal and maximal diameters just distal to the constriction. All responses to interventions were also X-ray imaged immediately (15 to 30 s after injection) and at exactly 3 minutes (and 15 minutes if there was vasospasm) after injection.

coronary arteries [3] = test: Drug-induced (S+U) coronary vasospasm in ovariectomized monkeys with E2 plus P or MPA implants; assay type: in vivo, rhesus monkeys (Macaca mulatta)
Procedure: Twelve rhesus monkeys (Macaca mulatta), aged 8 to 16 years and with weights of 5-7 kg, were ovariectomized at least 3 months prior to beginning of the study and selected randomly for one of two treatments. After documenting the lack of cardiovascular disease or previous exposure to atherogenic diet and after a normal physical examination (including blood chemistry), monkeys received subdermal sylastic implants containing 200 mg of E2. Two weeks later, sylastic implants containing either 400 mg of P or 400 mg of MPA were additionally implanted. All steroids were purchased from Steraloids (Wilton, N.H.). Both estrogen and progestin implants, providing sustained release steroids, remained in place through the catheterization study 6 weeks after beginning the study. Venous blood sample (5 ml) were collected just prior to beginning the study at weekly intervals for measurements of serum levels of E2, P, and MPA. Target levels of 80-160 pg/ml for E2, 4000-8000 pg/ml for P, and 400-800 pg/ml for MPA were based on levels that are effective by reproductive system indices in women and monkeys. Levels were measured in blood serum at catheterization by specific radio-immunoassays.
Angiography was carried out under isoflurane (0.75-1.25%) general anesthesia with 70% O2 and 30% N2O, and body temperature supported with a heating pad. After ketamine sedation (10 mg/kg) and endotracheal tube placement, both femoral arteries were cannulated for simultaneous measurement of systemic blood pressure and coronary catheterization. Intravenous anticoagulation with 1000 units of heparin and fluid replacement with 75-150 ml of lactated Ringer's solution, and if needed 10-50 ml of dextran, to reach a minimum control diastolic blood pressure of 60 mm Hg.
Coronary arteries (left anterior descending or left circumflex) of the monkeys were catheterized and agents injected as described above in Example 1.
Statistical analysis was carried out by Student's t-test (non-paired) or Chi-square, with the p<0.05 level accepted as significant.
All monkeys were treated with estradiol 17β via sylastic implants for the entire treatment period. P or MPA was added during the last 2 weeks as a second sylastic implant, to simulate the luteal phase (P) or hormone replacement therapy (MPA). All steroid implants were left in place, including during angiography. Steroid measurements were made by RIA on serum samples taken just before angiography. Indicates significant differences between P and MPA at p 0.05 (N=6 for each group).

[4] = system: coronary artery vascular muscle cells (VMC); test: Subcellular Ca2+ and PKC localization and contraction of coronary VMC stimulated with serotonin plus U46619; assay type: cell-based, rhesus monkeys
Excerpt: Single VMCs from the left anterior descending, circumflex, and right coronary arteries of adult rhesus monkeys were isolated and studied both as freshly dispersed and as primary cultures. The short-term primary cultured cells (never passaged) maintain the characteristics of the source tissue for 2 3 weeks, including contraction, relaxation, receptors, and membrane electrical properties. VMCs were dissociated with collagenase and protease enzymes in a potassium glutamate solution (KG) that prevent loading with Na^+, Ca^2+, or Cl^− and results in a high proportion of viable, contracting cells (Self, D. A., et al., J. Vasc. Res. 31:359-366 (1994); Rusch., N. J., et al., Physiology and Pathophysiology of the Heart, 999-1010 (1995)). The cells prepared for culture were seeded at low density in cardiovascular culture solution for mammals, fifth generation (CV5M) on glass coverslips to facilitate selection of individual cells. VMC were used for experiments 7-14 days after attaching to coverslips.
Freshly dispersed or primary cultured VMCs on glass coverslips were placed in a chamber of laminar flow design and observed with a Zeiss Plan Neofluar 25×/0.80 water immersion objective. Ionic solution for mammals version 2 (ISM2) was continuously pumped through the chamber (at 1 ml/minute) to provide continuous equilibration and washout of drugs. After a 15 minutes equilibration period, VMC were loaded for 15 minutes at room temperature with 3 μM fluo 3 (Molecular Probes, Inc.) for sensing Ca^2− and for 10 minutes with […] hypericin (LC Laboratories) for reporting PKC. Individual VMC were stimulated by adding 20 μl of 10 μM serotonin plus 100 nM U46619 over the individual cell. After 15 seconds under no-flow conditions, continuous flow of ISM2 was reinstated and a chamber volume of approximately 300 μl was maintained. Fluorescent images were taken at 1, 2, 5, 10, 15, 20 and 30 minutes after stimulation for Ca^2+ and at 3, 4, 9, 16, 21 and 31 minutes for PKC to evaluate subcellular distribution of these signals, and to determine VMC contraction.
ISM2 contains (in mM): 100 NaCl, 4 NaHCO3, 0.5 NaH2PO4, 4.7 KCl, 1.8 CaCl2, 0.41 […], 50 HEPES (pH 7.37), and 5.5 dextrose, KG solution consists of (in mM); 140 K-glutamate, 16 NaHCO3, 0.5 NaH2PO4, 30 HEPES, and 16.5 dextrose at pH 7.3. CVSM consists of. 4.0 mM L-glutamine, 10 μg/ml ciprofloxacin (Miles Pentex/Bayer Corporation), 50 mM HEPES (pH 7.3), and 16 mM NaHCO3 dissolved in 85% MEM-Earle's'salts and 15% horse serum. Phenol red, known to have estrogenic activity, was omitted from all solutions.
As discussed above, the monkeys were implanted with subdermal sylastic tubing containing estrogen (E) progesterone (P) or MPA. The first step in each of the three groups was to implant sylastic tubing containing E. Two weeks later, either P or MPA were additionally implanted and maintained for another 4 weeks (6 weeks total). In the withdrawal (W) group, the E tube was withdrawn, and no tubes were implanted for the last 4 weeks.

[5] = angiographic example, one MPA monkey
[6] = minimum, 5-20 minutes after IC S + U

Molecule: CC(=O)OCC[N+](C)(C)C [ACh, acetylcholine]
time to vasodilation (coronary arteries [1]; 67 nmol/liter ACh IC, all monkeys): ≤ 15 s

Molecule: CC[C@H](C)[C@H](NC(=O)[C@H](CC(=O)O)NC(=O)[C@H](CC(C)C)NC(=O)[C@H](Cc1c[nH]cn1)NC(=O)[C@@H]1CSSC[C@H](N)C(=O)N[C@@H](CO)C(=O)N[C@H]2CSSC[C@H](NC(=O)[C@H](CCC(=O)O)NC(=O)[C@H](CCCCN)NC(=O)[C@H](CC(=O)O)NC(=O)[C@H](CCSC)NC(=O)[C@H](CC(C)C)NC(=O)[C@H](CO)NC(=O)[C@H](CO)NC2=O)C(=O)N[C@@H](C(C)C)C(=O)N[C@@H](Cc2ccc(O)cc2)C(=O)N[C@@H](Cc2ccccc2)C(=O)N1)C(=O)N[C@H](C(=O)N[C@@H](Cc1c[nH]c2ccccc12)C(=O)O)[C@@H](C)CC [Endothelin 1]
Spasms/N (coronary arteries [2]; Protocol 2): 0/3
ED50 (-log mol/liter) (coronary arteries [2]; Protocol 2): 8.5 -log mol/liter
pEC50 (coronary arteries [1]; with 6.7 μmol/liter serotonin): 10.17
pEC50 (coronary arteries [1]; without serotonin): 9.70

Molecule: CC(=O)O[C@]1(C(C)=O)CC[C@H]2[C@@H]3C[C@H](C)C4=CC(=O)CC[C@]4(C)[C@H]3CC[C@@]21C [MPA, medroxyprogesterone acetate]
diameter in dilator response to low dose ACh (coronary arteries [3]; 0.18 μg ACh IC): 1.21±0.19 mm
number of S+U challenges responded to with vasospasm (mean) (coronary arteries [3]; E2+MPA treated monkeys): 2.7±0.7
number of S+U challenges responded to with vasospasm (range) (coronary arteries [3]; E2+MPA treated monkeys): 1-5
Vasospasms (incidence) (coronary arteries [3]; S+U IC challenges, E2 implant plus P or MPA implant, N=6 per group): 6 of 6 and 6/6*
reduction of minimum (φ) from controls after S+U (coronary arteries [3]; S+U stimulation): 87%
constriction after IC S+U (coronary arteries [3]; [5]): 92%
time constriction was sustained (coronary arteries [3]; [5]): 15 min
blood pressure nadir (coronary arteries [3]; angiographic example, one MPA monkey after S+U): 38/20
Control DBP in mm Hg (coronary arteries [3]; before S + U): 61 ± 5 mm Hg
Control Heart rate in bpm (coronary arteries [3]; before S + U): 134 ± 26 bpm
S + U (φ) minimum (coronary arteries [3]; minimum diameter 3 to 5 minutes after IC S + U): 0.15±0.04 mm
S + U stim DBP in min Hg (coronary arteries [3]; [6]): 26 ± 8 min Hg
S + U stim SBP in mm Hg (coronary arteries [3]; [6]): 45 ± 11 mm Hg
S + U stim heart rate in bpm (coronary arteries [3]; [6]): 69 ± 24 bpm
Control (φ) in mm (coronary arteries [3]; proximal LAD or left circumflex diameter under control conditions, E2+P or E2+MPA group): 1.15±0.10 mm
whole cell Ca2+ (fluo 3) fluorescence after stimulation ([4]; VMC from treated monkeys, 10 μM serotonin plus 100 nM U46619, FIG. 3): significantly increased over control averaged over the whole cell at 1 minute and every subsequent time point
peripheral-to-central Ca2+ ratio after stimulation ([4]; VMC from treated monkeys, 10 μM serotonin plus 100 nM U46619, FIG. 4): significantly decreased peripheral-to-central Ca^2+ ratio at 10 minutes and all subsequent times
PKC signal after stimulation ([4]; VMC from treated monkeys, 10 μM serotonin plus 100 nM U46619, FIG. 5): significantly above the 0-min control at 3 minutes and all subsequent time points
peripheral-to-central PKC ratio after stimulation ([4]; VMC from treated monkeys, 10 μM serotonin plus 100 nM U46619, FIG. 6): decreased significantly
VMC contractions (cell width) after stimulation ([4]; VMC from treated monkeys, 10 μM serotonin plus 100 nM U46619, FIG. 7): significantly different from 0-min controls at 3 minutes and all subsequent times
duration of activation by serotonin and U46619 ([4]; based on comparisons of contractions, protocol limit 30 minutes): > 30 min

EC50 (-log mol/liter) (coronary arteries [1]; Protocol 1, estimated actual coronary artery blood concentration based on 15-fold dilution): 6.8 -log mol/liter
Molecule: CCCCC[C@H](O)/C=C/[C@@H]1[C@@H](C/C=C\CCCC(=O)O)[C@H]2CO[C@@H]1C2 [U46619]
coronary vasospasm with mechanical injury (5F catheter stretch) (coronary arteries [2]; serotonin 67 μmol/liter IC, U46619 67 nmol/liter or 1 nmol/liter, ET1 ≦10 nmol/liter, AII ≦10 μmol/liter): caused another vasospasm; also recorded: Vasospasm was stimulated
Spasms/N (coronary arteries [1]; Protocol 1, number of animals with vasospasm / number of animals): 0/8
ED50 (-log mol/liter) (coronary arteries [1]; Protocol 1, syringe concentration of the named vasoconstrictor causing 50% reduction of diameter from control, combined stimuli with 100 μmol/liter serotonin): 5.5 -log mol/liter
vasoactivity / constriction of arteries on IC injection of single agent (coronary arteries [1]; serotonin 67 nmol/liter to 667 μmol/liter, U46619 6.7 to 2,000 nmol/liter): caused constriction of arteries in all 10 monkeys
coronary vasospasm on IC injection (no mechanical injury) (coronary arteries [1]): vasospasm could not be found

Molecule: Angiotensin II: vasoconstrictor angiotensin-II (DRVYIHPF; Angiotensin-2; UniProt P01019 25-32, looked up)
EC50 (-log mol/liter) (coronary arteries [2]; Protocol 2, estimated actual coronary artery blood concentration based on 15-fold dilution): 6.8 -log mol/liter
Spasms/N (coronary arteries [2]; Protocol 2): 0/3
ED50 (-log mol/liter) (coronary arteries [2]; Protocol 2): 5.5 -log mol/liter
systemic blood pressure (coronary arteries [1]; Angiotensin II up to 200 nmol/liter IC): did increase systemic blood pressure
coronary vasospasm on IC injection (no mechanical injury) (coronary arteries [1]): did not cause vasospasm

Reference: US6602487B1, “Methods and tests for producing and for inhibiting coronary artery vasospasms” (Dimera Incorporated, priority 1997, dated 2003)
